Data published in patent US20090247559A1 (Exelixis, Inc., priority 2007, published 2009).
Where two headings read alike, the source gives them in different places.

Columns and labels:
[1] = molecular target: PIM (PIM-1, PIM-2, and/or PIM-3); test: PIM-1, PIM-2 and PIM-3 inhibition, biochemical chemiluminescence assays (Kinase Glo, IC50 determination); settings: Table 1 activity class; PIM refers to PIM-1, PIM-2, and/or PIM-3; read-out: PIM IC50 (Activity B)
CDC7 = CDC7 (Homo sapiens, UniProt O00311); test: CDC7 inhibition, biochemical chemiluminescence assay (Kinase Glo, IC50 determination)
Chain of CDC7 (O00311 whole entry): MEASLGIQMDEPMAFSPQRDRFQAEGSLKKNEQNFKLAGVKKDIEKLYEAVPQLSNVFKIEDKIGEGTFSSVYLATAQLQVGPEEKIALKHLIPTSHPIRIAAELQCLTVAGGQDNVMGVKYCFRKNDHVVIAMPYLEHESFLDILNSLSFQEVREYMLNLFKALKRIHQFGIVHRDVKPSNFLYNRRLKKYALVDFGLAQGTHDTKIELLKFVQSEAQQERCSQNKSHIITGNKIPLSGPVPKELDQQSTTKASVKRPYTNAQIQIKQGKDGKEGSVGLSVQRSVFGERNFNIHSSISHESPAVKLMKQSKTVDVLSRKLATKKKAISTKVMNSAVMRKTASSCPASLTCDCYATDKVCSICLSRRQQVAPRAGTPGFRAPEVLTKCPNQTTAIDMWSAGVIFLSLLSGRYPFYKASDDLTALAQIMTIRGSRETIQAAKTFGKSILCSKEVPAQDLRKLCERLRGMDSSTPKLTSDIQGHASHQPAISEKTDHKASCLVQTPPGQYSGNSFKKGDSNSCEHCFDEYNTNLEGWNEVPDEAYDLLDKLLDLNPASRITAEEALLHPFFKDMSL
Chain of CDC7 (Q9UBU7 whole entry partner): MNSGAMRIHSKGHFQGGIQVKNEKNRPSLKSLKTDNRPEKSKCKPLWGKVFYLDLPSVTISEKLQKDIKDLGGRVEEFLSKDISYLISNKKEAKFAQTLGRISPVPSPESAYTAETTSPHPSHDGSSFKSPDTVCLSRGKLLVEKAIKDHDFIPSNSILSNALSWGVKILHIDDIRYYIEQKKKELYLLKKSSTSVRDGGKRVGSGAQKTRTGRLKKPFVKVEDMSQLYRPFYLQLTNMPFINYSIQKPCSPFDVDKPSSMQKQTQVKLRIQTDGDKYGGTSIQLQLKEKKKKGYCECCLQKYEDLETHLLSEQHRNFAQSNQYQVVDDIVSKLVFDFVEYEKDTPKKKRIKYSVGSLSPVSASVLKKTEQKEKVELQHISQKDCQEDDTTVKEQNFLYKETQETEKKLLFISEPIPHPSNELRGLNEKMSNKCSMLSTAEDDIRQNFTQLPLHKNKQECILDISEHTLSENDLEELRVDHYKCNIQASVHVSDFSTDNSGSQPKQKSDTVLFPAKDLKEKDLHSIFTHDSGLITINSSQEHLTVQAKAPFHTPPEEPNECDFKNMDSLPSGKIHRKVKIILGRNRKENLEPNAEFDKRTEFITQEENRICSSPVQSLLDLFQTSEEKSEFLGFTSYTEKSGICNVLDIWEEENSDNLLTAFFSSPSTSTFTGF
In short: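 CDC7 enzyme preincubated with compound 10 min at ambient temperature, then ATP mix in Tris Base added; reaction 90 min at 24-27 °C. Remaining ATP quantified by Kinase Glo luminescence to give IC50.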

CK2 = CK2 (Homo sapiens, UniProt P68400); test: CK2 inhibition, biochemical chemiluminescence holoenzyme assay (Kinase Glo, IC50 determination)
Chain of CK2 (P68400 whole entry): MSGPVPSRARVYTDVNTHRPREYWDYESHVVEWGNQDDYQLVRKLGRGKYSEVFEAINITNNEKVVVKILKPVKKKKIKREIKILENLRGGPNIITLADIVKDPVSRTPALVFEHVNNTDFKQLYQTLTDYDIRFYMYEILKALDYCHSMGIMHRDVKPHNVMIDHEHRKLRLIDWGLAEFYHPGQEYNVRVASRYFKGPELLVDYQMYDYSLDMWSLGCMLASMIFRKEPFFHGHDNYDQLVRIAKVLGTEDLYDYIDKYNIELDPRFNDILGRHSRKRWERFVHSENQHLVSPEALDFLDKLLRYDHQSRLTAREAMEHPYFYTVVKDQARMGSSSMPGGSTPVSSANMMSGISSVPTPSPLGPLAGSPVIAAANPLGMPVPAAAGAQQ
Chain of CK2 (P67870 whole entry partner): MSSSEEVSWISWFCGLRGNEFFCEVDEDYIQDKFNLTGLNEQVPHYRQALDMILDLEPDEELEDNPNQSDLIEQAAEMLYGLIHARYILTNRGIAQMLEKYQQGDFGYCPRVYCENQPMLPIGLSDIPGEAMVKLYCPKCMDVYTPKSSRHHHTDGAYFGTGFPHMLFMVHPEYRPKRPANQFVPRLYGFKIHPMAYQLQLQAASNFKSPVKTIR
In short: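 Holoenzyme CK2 assay; compounds pre-incubated with substrate and enzyme, then reacted 150 min at 24-27° C. Remaining ATP measured as luminescence with Kinase Glo, and IC50 derived from the signal.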

[2] = Table 1 activity class, symbol given only if active, read-out: CDC7 IC50 (Activity A)
[3] = Table 1 activity class, symbol given only if active, read-out: CK2 IC50 (Activity C)
[4] = compounds in Table 1, read-out: CDC7 IC50 value

Row | Compound | IC50 [1] [µM] | IC50 (CDC7; [2]) [µM] | IC50 (CK2; [3]) [µM] | IC50 (CDC7; [4]) [µM] | IC50 (CDC7; CDC7 IC50 (Activity A), Table 1 activity class, symbol given only if active) [µM] | IC50 (CK2) [µM]
1 | CC(C)(NCc1nc2c(oc3ccc(Br)cc32)c(=O)[nH]1)C(=O)O [Compound 189, N-[(8-bromo-4-oxo-3,4-dihydro[1]benzofuro[3,2-d]pyrimidin-2-yl)methyl]-2-methylalanine] | < 10 | < 10 | < 10 |  |  | 
2 | Cn1ccc(C(=O)Nc2ccc(-c3nc4c(oc5ccc(Br)cc54)c(=O)[nH]3)c(Cl)c2)n1 [Compound 391] | < 10 | < 10 | < 10 |  |  | 
3 | O=c1[nH]c(CN2CCC[C@H](O)C2)nc2c1oc1ccc(Br)cc12 [Compound 404, 8-bromo-2-{[(3S)-3-hydroxypiperidin-1-yl]methyl}[1]benzofuro[3,2-d]pyrimidin-4(3H)-one] | < 10 | < 10 | < 10 | < 0.1 |  | 
4 | COCC(=O)Nc1ccc(-c2nc3c(oc4ccc(Br)cc43)c(=O)[nH]2)c(Cl)c1 [Compound 319, N-[4-(8-bromo-4-oxo-3,4-dihydro[1]benzofuro[3,2-d]pyrimidin-2-yl)-3-chlorophenyl]-2-(methyloxy)acetamide] | < 10 | < 10 | < 10 |  |  | 
5 | COC(=O)Nc1ccc(-c2nc3c(oc4ccc(Br)cc43)c(=O)[nH]2)c(Cl)c1 [Compound 320, methyl [4-(8-bromo-4-oxo-3,4-dihydro[1]benzofuro[3,2-d]pyrimidin-2-yl)-3-chlorophenyl]carbamate] | < 10 | < 10 | < 10 |  |  | 
6 | O=c1[nH]c(-c2ccc(NCC3CCNC3)cc2Cl)nc2c1oc1ccc(Br)cc12 (centres unmarked) [Compound 154, 8-bromo-2-{2-chloro-4-[(pyrrolidin-3-ylmethyl)amino]phenyl}[1]benzofuro[3,2-d]pyrimidin-4(3H)-one] | < 10 | < 10 | < 10 |  |  | 
7 | O=c1[nH]c(-c2ccc(CNC3CCCCC3)cc2Cl)nc2c1oc1ccc(Br)cc12 [Compound 427, 8-bromo-2-{2-chloro-4-[(cyclohexylamino)methyl]phenyl}[1]benzofuro[3,2-d]pyrimidin-4(3H)-one] | < 10 | < 10 | < 10 |  |  | 
8 | CC(C)[C@H](N)c1nc2c(oc3ccc(Br)cc32)c(=O)[nH]1 [Compound 540, 2-[(1S)-1-amino-2-methylpropyl]-8-bromo[1]benzofuro[3,2-d]pyrimidin-4(3H)-one] | < 10 | < 10 | < 10 | < 0.1 |  | 
9 | CCC1(O)CCN(Cc2nc3c(oc4ccc(Br)cc43)c(=O)[nH]2)C1 (centres unmarked) [Compound 407, 8-bromo-2-[(3-ethyl-3-hydroxypyrrolidin-1-yl)methyl][1]benzofuro[3,2-d]pyrimidin-4(3H)-one] | < 10 | < 10 | < 10 | < 0.1 |  | 
10 | O=c1[nH]c(CN2CC=CC2)nc2c1oc1ccc(Br)cc12 [Compound 331, 8-bromo-2-(3-pyrrolin-1-ylmethyl)[1]benzofuro[3,2-d]pyrimidin-4(3H)-one] | < 10 | < 10 | < 10 | < 0.1 |  | 
11 | COc1ccc2oc3c(=O)[nH]c([C@@H]4C[C@@H](F)CN4)nc3c2c1 [Compound 532, 2-[(2S,4R)-4-fluoropyrrolidin-2-yl]-8-(methyloxy)[1]benzofuro[3,2-d]pyrimidin-4(3H)-one] | < 10 | < 10 | < 10 | < 0.1 |  | 
12 | O=c1[nH]c([C@@H]2C[C@@H](F)CN2)nc2c1oc1ccc(Cl)cc12 [Compound 526, 8-chloro-2-[(2S,4R)-4-fluoropyrrolidin-2-yl][1]benzofuro[3,2-d]pyrimidin-4(3H)-one] | < 10 | < 10 | < 10 | < 0.1 |  | 
13 | Nc1n[nH]c2ccc(-c3nc4c(oc5ccc(Br)cc54)c(=O)[nH]3)cc12 [Compound 220, 2-(3-amino-1H-indazol-5-yl)-8-bromo[1]benzofuro[3,2-d]pyrimidin-4(3H)-one] | < 10 | < 10 | < 10 |  |  | 
14 | COCCNCc1nc2c(oc3ccc(Br)cc32)c(=O)[nH]1 [Compound 277, 8-bromo-2-({[2-(methyloxy)ethyl]amino}methyl)[1]benzofuro[3,2-d]pyrimidin-4(3H)-one] | < 10 | < 10 | < 10 | < 0.1 |  | 
15 | O=c1[nH]c(C2CCCO2)nc2c1oc1ccc(Br)cc12 (centres unmarked) [Compound 499, 8-bromo-2-(tetrahydrofuran-2-yl)[1]benzofuro[3,2-d]pyrimidin-4(3H)-one] | < 10 | < 10 | < 10 |  |  | 
16 | Nc1ccc(-c2nc3c(oc4ccc(Br)cc43)c(=O)[nH]2)c(Cl)c1 [Compound 34, 2-(4-Amino-2-chlorophenyl)-8-bromo[1]benzofuro[3,2-d]pyrimidin-4(3H)-one] | < 10 | < 10 | < 10 |  |  | 

Row | Compound | IC50 [1] [µM] | IC50 (CDC7; [2]) [µM] | IC50 (CK2; [3]) [µM] | IC50 (CDC7; [4]) [µM] | IC50 (CDC7; CDC7 IC50 (Activity A), Table 1 activity class, symbol given only if active) [µM] | IC50 (CK2) [µM]
17 | O=c1[nH]c(C2CCCN2)nc2c1oc1ccc(Br)cc12 (centres unmarked) [Compound 169, 8-bromo-2-pyrrolidin-2-yl[1]benzofuro[3,2-d]pyrimidin-4(3H)-one] | < 10 | < 10 | < 10 | < 0.1 |  | 
18 | CC1CCN(Cc2nc3c(oc4ccc(Br)cc43)c(=O)[nH]2)CC1 [Compound 201, 8-bromo-2-[(4-methylpiperidin-1-yl)methyl][1]benzofuro[3,2-d]pyrimidin-4(3H)-one] | < 10 | < 10 | < 10 | < 0.1 |  | 
19 | NC(CCc1ccccc1)c1nc2c(oc3ccc(Br)cc32)c(=O)[nH]1 (stereo in doubt) [Compound 537, 2-[(1S)-1-amino-3-phenylpropyl]-8-bromo[1]benzofuro[3,2-d]pyrimidin-4(3H)-one] | < 10 | < 10 | < 10 |  |  | 
20 | O=c1[nH]c([C@@H]2C[C@H](O)CN2)nc2c1oc1ccc(Cl)cc12 [Compound 528, 8-chloro-2-[(2S,4S)-4-hydroxypyrrolidin-2-yl][1]benzofuro[3,2-d]pyrimidin-4(3H)-one] | < 10 | < 10 | < 10 | < 0.1 |  | 
21 | O=C(O)C1(O)CCN(Cc2nc3c(oc4ccc(Br)cc43)c(=O)[nH]2)C1 (centres unmarked) [Compound 368, 1-[(8-bromo-4-oxo-3,4-dihydro[1]benzofuro[3,2-d]pyrimidin-2-yl)methyl]-3-hydroxypyrrolidine-3-carboxylic acid] | < 10 | < 10 | < 10 | < 0.1 |  | 
22 | CN(C)CCC(=O)Nc1ccc(-c2nc3c(oc4ccc(Br)cc43)c(=O)[nH]2)c(Cl)c1 [Compound 135, N-[4-(8-bromo-4-oxo-3,4-dihydro[1]benzofuro[3,2-d]pyrimidin-2-yl)-3-chlorophenyl]-N′3′,N′3′-dimethyl-beta-alaninamide] | < 10 | < 10 | < 10 |  |  | 
23 | O=c1[nH]c(CN2C3CCC2CC(O)C3)nc2c1oc1ccc(Br)cc12 (centres unmarked) [Compound 398, 8-bromo-2-[(3-hydroxy-8-azabicyclo[3.2.1]oct-8-yl)methyl][1]benzofuro[3,2-d]pyrimidin-4(3H)-one] | < 10 |  |  |  | < 10 | < 10
24 | O=c1[nH]c(CN2CCCC2)nc2c1oc1ccc(Cl)cc12 [Compound 5, 8-chloro-2-(pyrrolidin-1-ylmethyl)[1]benzofuro[3,2-d]pyrimidin-4(3H)-one] | < 10 | < 10 | < 10 | < 0.1 |  | 
25 | Nc1n[nH]c2ccc(C(=O)Nc3ccc(-c4nc5c(oc6ccc(Br)cc65)c(=O)[nH]4)c(Cl)c3)cc12 [Compound 393, ′3-amino-N-[4-(8-bromo-4-oxo-3,4-dihydro[1]benzofuro[3,2-d]pyrimidin-2-yl)-3-chlorophenyl]-1H-indazole-5-carboxamide] | < 10 | < 10 | < 10 |  |  | 
26 | O=c1[nH]c(CN2CCNCC2)nc2c1oc1ccc(Br)cc12 [Compound 141, 8-bromo-2-(piperazin-1-ylmethyl)[1]benzofuro[3,2-d]pyrimidin-4(3H)-one] | < 10 | < 10 | < 10 |  |  | 
27 | O=c1[nH]c(-c2cc([N+](=O)[O-])ccc2Cl)nc2c1oc1ccc(Br)cc12 [Compound 126, 8-bromo-2-(2-chloro-5-nitrophenyl)[1]benzofuro[3,2-d]pyrimidin-4(3H)-one] | < 10 | < 10 | < 10 |  |  | 
28 | O=c1[nH]c(-c2nccs2)nc2c1oc1ccc(Br)cc12 [Compound 86, 8-bromo-2-(1,3-thiazol-2-yl)[1]benzofuro[3,2-d]pyrimidin-4(3H)-one] | < 10 | < 10 | < 10 |  |  | 
29 | CC(C)COc1cccc2oc3c(=O)[nH]c(CN4CC[C@H](O)C4)nc3c12 [Compound 469, 2-{[(3S)-3-hydroxypyrrolidin-1-yl]methyl}-9-[(2-methylpropyl)oxy][1]benzofuro[3,2-d]pyrimidin-4(3H)-one] | < 10 | < 10 | < 10 |  |  | 
30 | O=c1[nH]c(CNCC(O)CO)nc2c1oc1ccc(Br)cc12 (centres unmarked) [Compound 262, 8-bromo-2-{[(2,3-dihydroxypropyl)amino]methyl}[1]benzofuro[3,2-d]pyrimidin-4(3H)-one] | < 10 | < 10 | < 10 | < 0.1 |  | 
31 | COc1ccc2oc3c(=O)[nH]c(C4CCCN4)nc3c2c1 (stereo in doubt) [Compound 495, 8-(methyloxy)-2-[(2R)-pyrrolidin-2-yl][1]benzofuro[3,2-d]pyrimidin-4(3H)-one] | < 10 | < 10 | < 10 | < 0.1 |  | 
